In ChEMBL document CHEMBL1201862, “PubChem BioAssay data set” (2004):
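Five concentrations, 48 hours, 96-well plates. Abbreviation: GI50, concentration required for 50% inhibition of growth.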 Calls of active or inactive are those of the source. Cut-off read from the data, not from the text of the source: active = GI50 up to about 1.1 µM and inactive = higher.

What was measured:
Experiment in all cases: DTP human tumour cell line panel, 48 h
CCRF-CEM = tested on: CCRF-CEM
COLO 205 = tested on: COLO 205
HCT-116 = tested on: HCT-116
NCI-H226 = tested on: NCI-H226
NCI-H23 = tested on: NCI-H23
NCI-H460 = tested on: NCI-H460
OVCAR-8 = tested on: OVCAR-8
SF-268 = tested on: SF-268
SK-MEL-28 = tested on: SK-MEL-28
SK-MEL-5 = tested on: SK-MEL-5
SN12C = tested on: SN12C
UACC-257 = tested on: UACC-257
HOP-62 = tested on: HOP-62
MOLT-4 = tested on: MOLT-4
OVCAR-3 = tested on: OVCAR-3
OVCAR-5 = tested on: OVCAR-5
RPMI-8226 = tested on: RPMI-8226
SF-539 = tested on: SF-539
RXF 393 = tested on: RXF 393

Measured: GI50

COc1ccc(-c2c(C#N)c(N)nc3c2CCS(=O)(=O)c2ccccc2-3)cc1
inactive: CCRF-CEM > 100 µM | COLO 205 > 100 µM | HCT-116 > 100 µM | NCI-H226 > 100 µM | NCI-H23 > 100 µM | NCI-H460 > 100 µM | OVCAR-8 > 100 µM | SF-268 > 100 µM | SK-MEL-28 > 100 µM | SK-MEL-5 > 100 µM | SN12C > 100 µM | UACC-257 > 100 µM

CN(C)c1ccc(/C=C2\N=C(c3ccc(N)cc3)OC2=O)cc1
inactive: CCRF-CEM > 100 µM | COLO 205 > 100 µM | HOP-62 > 100 µM | MOLT-4 > 100 µM | NCI-H226 > 100 µM | NCI-H23 > 100 µM | NCI-H460 > 100 µM | OVCAR-3 > 100 µM | OVCAR-5 > 100 µM | OVCAR-8 > 100 µM | RPMI-8226 > 100 µM | SF-268 > 100 µM | SF-539 > 100 µM | SK-MEL-28 > 100 µM | SK-MEL-5 > 100 µM | SN12C > 100 µM | UACC-257 > 100 µM

COC(=O)C(CC(=O)c1ccccc1)c1ccccc1NC(C)=O (centres undefined)
inactive: CCRF-CEM > 100 µM | COLO 205 > 100 µM | HCT-116 > 100 µM | HOP-62 > 100 µM | MOLT-4 > 100 µM | NCI-H226 > 100 µM | NCI-H23 > 100 µM | NCI-H460 > 100 µM | OVCAR-3 > 100 µM | OVCAR-5 > 100 µM | OVCAR-8 > 100 µM | RPMI-8226 > 100 µM | SF-268 > 100 µM | SF-539 > 100 µM | SK-MEL-28 > 100 µM | SK-MEL-5 > 100 µM | SN12C > 100 µM | UACC-257 > 100 µM

N#CC(C(=O)CCC(=O)Nc1ccc(Cl)cc1)c1ccccc1Cl (centres undefined)
inactive: CCRF-CEM > 100 µM | COLO 205 > 100 µM | HCT-116 61.1 µM | MOLT-4 > 100 µM | NCI-H226 > 100 µM | NCI-H23 93.1 µM | NCI-H460 > 100 µM | OVCAR-3 > 100 µM | OVCAR-5 50.5 µM | OVCAR-8 > 100 µM | RPMI-8226 > 100 µM | SF-268 32.1 µM | SF-539 > 100 µM | SK-MEL-28 > 100 µM | SK-MEL-5 > 100 µM | SN12C > 100 µM | UACC-257 > 100 µM

CCOC(=O)CNC(=O)c1nc[nH]c1/N=N/N(C)C
inactive: CCRF-CEM > 100 µM | COLO 205 > 100 µM | HCT-116 > 100 µM | HOP-62 > 100 µM | MOLT-4 > 100 µM | NCI-H226 > 100 µM | NCI-H23 > 100 µM | NCI-H460 > 100 µM | OVCAR-3 > 100 µM | OVCAR-5 > 100 µM | OVCAR-8 > 100 µM | RPMI-8226 > 100 µM | SF-268 > 100 µM | SF-539 > 100 µM | SK-MEL-28 > 100 µM | SK-MEL-5 > 100 µM | SN12C > 100 µM | UACC-257 > 100 µM

Cc1cccc2c3ccc4c(c3n(C)c12)C(=O)C=CC4=O
inactive: CCRF-CEM 18.2 µM | COLO 205 > 100 µM | HCT-116 > 100 µM | HOP-62 > 100 µM | MOLT-4 35.9 µM | NCI-H226 > 100 µM | NCI-H23 18.6 µM | OVCAR-3 > 100 µM | OVCAR-8 89.1 µM | RPMI-8226 32.8 µM | SF-268 > 100 µM | SF-539 > 100 µM | SK-MEL-28 > 100 µM | SN12C > 100 µM | UACC-257 > 100 µM

C[Si](C)(C)CC(N)=O
inactive: CCRF-CEM > 100 µM | COLO 205 > 100 µM | HCT-116 > 100 µM | HOP-62 > 100 µM | MOLT-4 > 100 µM | NCI-H226 > 100 µM | NCI-H460 > 100 µM | OVCAR-3 > 100 µM | OVCAR-5 > 100 µM | OVCAR-8 > 100 µM | RPMI-8226 > 100 µM | RXF 393 > 100 µM | SK-MEL-28 > 100 µM | SK-MEL-5 > 100 µM | SN12C > 100 µM | UACC-257 > 100 µM

CC(=O)NNc1nc(C)c(C(=O)/C=C/c2ccc(NC(C)=O)cc2)s1
inactive: CCRF-CEM > 100 µM | COLO 205 > 100 µM | HOP-62 > 100 µM | MOLT-4 > 100 µM | NCI-H23 > 100 µM | NCI-H460 > 100 µM | OVCAR-3 > 100 µM | OVCAR-5 > 100 µM | OVCAR-8 > 100 µM | RPMI-8226 > 100 µM | RXF 393 > 100 µM | SF-268 > 100 µM | SF-539 > 100 µM | SK-MEL-28 > 100 µM | SK-MEL-5 > 100 µM | SN12C > 100 µM | UACC-257 98.6 µM

COc1ccc(OC)c2c(C(=O)O)c(Cc3ccccc3)ccc12
inactive: CCRF-CEM > 10 µM | COLO 205 > 100 µM | HCT-116 > 100 µM | HOP-62 > 100 µM | MOLT-4 > 100 µM | NCI-H226 > 100 µM | NCI-H23 > 100 µM | NCI-H460 > 100 µM | OVCAR-3 > 100 µM | OVCAR-5 > 100 µM | OVCAR-8 > 100 µM | RXF 393 > 100 µM | SF-268 > 100 µM | SK-MEL-28 > 100 µM | SK-MEL-5 > 100 µM | SN12C > 100 µM | UACC-257 > 100 µM

OC1NC2Nc3ccccc3NC2NC1O (centres undefined)
inactive: CCRF-CEM > 100 µM | COLO 205 > 100 µM | HCT-116 > 100 µM | HOP-62 > 100 µM | MOLT-4 > 100 µM | NCI-H226 > 100 µM | NCI-H23 > 100 µM | NCI-H460 > 100 µM | OVCAR-3 > 100 µM | OVCAR-5 > 100 µM | OVCAR-8 > 100 µM | RXF 393 > 100 µM | SF-268 > 100 µM | SF-539 > 100 µM | SK-MEL-28 > 100 µM | SK-MEL-5 > 100 µM | SN12C > 100 µM | UACC-257 > 100 µM

CC1(C)OC2COC3(CNO)OC(C)(C)OC3C2O1 (centres undefined)
inactive: CCRF-CEM > 100 µM | COLO 205 > 100 µM | HCT-116 > 100 µM | HOP-62 > 100 µM | MOLT-4 > 100 µM | NCI-H226 > 100 µM | NCI-H23 > 100 µM | NCI-H460 > 100 µM | OVCAR-3 > 100 µM | OVCAR-5 > 100 µM | OVCAR-8 > 100 µM | RXF 393 > 100 µM | SF-268 > 100 µM | SF-539 > 100 µM | SK-MEL-28 > 100 µM | SK-MEL-5 > 100 µM | SN12C > 100 µM | UACC-257 > 100 µM

COc1nc2c(nc(N)n2C2OC(CO)C(O)C(O)C2O)c(=O)[nH]1 (centres undefined)
inactive: CCRF-CEM > 100 µM | COLO 205 > 100 µM | HCT-116 > 100 µM | HOP-62 > 100 µM | NCI-H226 > 100 µM | NCI-H23 > 100 µM | NCI-H460 > 100 µM | OVCAR-3 > 100 µM | OVCAR-8 > 100 µM | RXF 393 > 100 µM | SF-268 > 100 µM | SF-539 > 100 µM | SK-MEL-28 > 100 µM | SK-MEL-5 > 100 µM | SN12C > 100 µM | UACC-257 > 100 µM
